For 29 compounds, EC50 results are on record in patent US8999967B2, “Tricyclic fused ring inhibitors of hepatitis C” (Presidio Pharmaceuticals, Inc., priority 2010, dated 2015).

Some results are limits rather than exact numbers.

In this assay the test system is HCV 1b_Huh-Luc/Neo-ET cell line (genotype 1b replicon in Huh 7 cells). As to the kind of experiment: HCV replicon assay (luciferase readout). It is filed as cell-based. To be noted: Hepatitis C virus, HCV 1b replicon in Huh 7 cells, 72 h incubation, EC50 range class, read-out: Inhibition of HCV genotype 1b. As for the experimental part: Biological activity of the compounds of the invention was determined using an HCV replicon assay. The HCV 1b_Huh-Luc/Neo-ET cell line persistently expressing a bicistronic genotype 1b replicon in Huh 7 cells was obtained from ReBLikon GMBH. This cell line was used to test compound inhibition using luciferase enzyme activity readout as a measurement of compound inhibition of replicon levels.
On Day 1 (the day after plating cells), each compound is added in triplicate to the cells. Plates are incubated for 72 h prior to determining luciferase levels. Enzyme activity was measured using a Bright-Glo Kit (cat. number E2620) manufactured by Promega Corporation. The following equation was used to generate a percent control value for each compound. % Control=(Compound Luciferase Level/Control Luciferase Level)*100
The EC50 value was determined using GraphPad Prism and the following equation: Y=Bottom asymptote+(Top asymptote-Bottom asymptote)/(1+10^((Log EC50−X)*HillSlope))
EC50 values of compounds are determined several times in the replicon assay to generate average EC50 values. […]
With `COC(=O)N[C@H](C(=O)N1CCC[C@H]1c1ncc(-c2cc3oc4ccc(-c5cnc([C@@H]6CCCN6C(=O)[C@H](NC(=O)OC)c6ccccc6)[nH]5)cc4c(=O)c3cc2F)[nH]1)C(C)C` [Example 27], the EC50 was < 1 nM.

Turning to `COC(=O)N[C@H](C(=O)N1CCC[C@H]1c1ncc(-c2ccc3c(c2)Oc2ccc(-c4cnc([C@@H]5CCCN5C(=O)[C@@H](NC(=O)OC)C(C)C)[nH]4)cc2C(=O)N3)[nH]1)C(C)C` [Example 14], the EC50 lay in the range of 10 to 999 nM.

Regarding `COC[C@H](NC(=O)OC)C(=O)N1CCC[C@H]1c1ncc(-c2ccc3c(c2)Cc2cc(F)c(-c4cnc([C@@H]5CCCN5C(=O)[C@@H](NC(=O)OC)[C@@H](C)OC)[nH]4)cc2O3)[nH]1` [Compound 43], the EC50 is < 1 nM.

Regarding `COC(=O)N[C@H](C(=O)N1CCC[C@H]1c1ncc(-c2ccc3c(=O)c4cc(-c5cnc([C@@H]6CCCN6C(=O)[C@@H](NC(=O)OC)C6CCOCC6)[nH]5)ccc4oc3c2)[nH]1)C(C)C` [Example 16], the EC50 is < 1 nM.

For `CC[C@H](C)[C@H](NC(=O)OC)C(=O)N1CCC[C@H]1c1ncc(-c2ccc3oc4cc(-c5ccc6nc([C@@H]7CCCN7C(=O)[C@@H](NC(=O)OC)[C@@H](C)OC)[nH]c6c5)ccc4c(=O)c3c2)[nH]1` [Compound 145], the EC50 was < 1 nM.

`COC(=O)N[C@H](C(=O)N1CCCC[C@H]1c1ncc(-c2ccc3oc4cc(-c5cnc([C@@H]6CCCN6C(=O)[C@@H](NC(=O)OC)C(C)C)[nH]5)ccc4c(=O)c3c2)[nH]1)C(C)C` [Compound 141]: the EC50 is < 1 nM.

As to `COC(=O)N[C@H](C(=O)N1CCC[C@H]1c1ncc(-c2cc3c(cc2F)Cc2cc(-c4cnc([C@@H]5CCCN5C(=O)[C@@H](NC(=O)OC)C5CCOCC5)[nH]4)ccc2O3)[nH]1)C(C)C` [Compound 44], the EC50 was < 1 nM.

In the case of `COC(=O)N[C@H](C(=O)N1CCC[C@H]1c1ncc(-c2cc3oc4ccc(-c5cnc([C@@H]6CCCN6C(=O)[C@@H](NC(=O)OC)C6CCOCC6)[nH]5)cc4c(=O)c3cc2F)[nH]1)C(C)C` [Example 28], the EC50 was < 1 nM.

Regarding `O=C(N[C@@H](C(=O)N1CCC[C@H]1c1ncc(-c2ccc3oc4cc(-c5cnc([C@@H]6CCCN6C(=O)[C@H](NC(=O)OC6CCOCC6)c6ccccc6)[nH]5)c(F)cc4c(=O)c3c2)[nH]1)c1ccccc1)OC1CCOCC1` [Example 25], the EC50 is < 1 nM.

With `COC(=O)N[C@@H](C(=O)N1CCC[C@H]1c1ncc(-c2ccc3c(c2)Cc2cc(-c4cnc([C@@H]5CCCN5C(=O)[C@H](NC(=O)OC)c5ccccc5)[nH]4)ccc2O3)[nH]1)c1ccccc1` [Example 5], the EC50 is < 1 nM.

Take `COC(=O)N[C@H](C(=O)N1CCC[C@H]1c1ncc(-c2ccc3c(c2)CN(C)c2ccc(-c4cnc([C@@H]5CCCN5C(=O)[C@@H](NC(=O)OC)C(C)C)[nH]4)cc2CN3C)[nH]1)C(C)C` [Example 13]: the EC50 is < 1 nM.

Turning to `C#CC[C@H](NC(=O)OC)C(=O)N1CCC[C@H]1c1ncc(-c2ccc3c(c2)C(C)(C)c2ccc(-c4ccc5nc([C@@H]6CCCN6C(=O)[C@H](CC#C)NC(=O)OC)[nH]c5c4)cc2O3)[nH]1` [Compound 150], the EC50 was < 1 nM.

As for `COC(=O)N[C@H](C(=O)N1CCC[C@H]1c1ncc(-c2ccc3oc4cc(-c5cnc([C@@H]6CCCN6C(=O)[C@H](NC(=O)OC)c6ccccc6)[nH]5)ccc4c(=O)c3c2)[nH]1)C(C)C` [Example 18], the EC50 is < 1 nM.

As to `COC(=O)N[C@H](C(=O)N1CCC[C@H]1c1ncc(-c2ccc3c(c2)Cc2cc(F)c(-c4cnc([C@@H]5CCCN5C(=O)[C@@H](NC(=O)OC)[C@@H](C)OC)[nH]4)cc2O3)[nH]1)C1CCOCC1` [Compound 42], the EC50 is < 1 nM.

Turning to `COC(=O)N[C@H](C(=O)N1CCC[C@H]1c1ncc(-c2ccc3c(c2)Cc2cc(Cl)c(-c4cnc([C@@H]5CCCN5C(=O)[C@@H](NC(=O)OC)[C@@H](C)OC)[nH]4)cc2O3)[nH]1)[C@@H](C)OC` [Compound 62], the EC50 was < 1 nM.

Consider `COC(=O)N[C@H](C(=O)N1CCC[C@H]1c1ncc(-c2ccc3c(c2)Oc2ccc(-c4cnc([C@@H]5CCCN5C(=O)[C@@H](NC(=O)OC)[C@@H](C)OC)[nH]4)cc2O3)[nH]1)[C@@H](C)OC` [Compound 34], for which the EC50 is < 1 nM.

As to `COC(=O)N[C@H](C(=O)N1CCC[C@H]1c1ncc(-c2ccc3c(c2)Oc2ccc(-c4cnc([C@@H]5CCCN5C(=O)[C@@H](NC(=O)OC)C5CCOCC5)[nH]4)cc2C3(C)C)[nH]1)C1CCOCC1` [Compound 75], the EC50 was < 1 nM.

`CC[C@H](C)[C@H](NC(=O)OC)C(=O)N1CCC[C@H]1c1ncc(-c2cc3c(cc2F)Cc2cc(-c4cnc([C@@H]5CCCN5C(=O)[C@@H](NC(=O)OC)C5CCOCC5)[nH]4)ccc2O3)[nH]1` [Compound 59]: the EC50 was < 1 nM.

Consider `C=CC[C@H](NC(=O)OC)C(=O)N1CCC[C@H]1c1ncc(-c2ccc3c(c2)C(C)(C)c2ccc(-c4ccc5nc([C@@H]6CCCN6C(=O)[C@H](CC=C)NC(=O)OC)[nH]c5c4)cc2O3)[nH]1` [Compound 148], for which the EC50 is < 1 nM.

In the case of `COC(=O)N[C@H](C(=O)N1CCC[C@H]1c1ncc(-c2ccc3c(c2)Oc2ccc(-c4cnc([C@@H]5CCCN5C(=O)[C@@H](NC(=O)OC)C(C)C)[nH]4)cc2O3)[nH]1)C(C)C` [Example 3], the EC50 is < 1 nM.

`CC[C@H](C)[C@H](NC(=O)OC)C(=O)N1CCC[C@H]1c1ncc(-c2ccc3oc4cc(-c5cnc([C@@H]6CCCN6C(=O)[C@@H](NC(=O)OC)[C@@H](C)CC)[nH]5)c(Cl)cc4c(=O)c3c2)[nH]1` [Compound 51]: the EC50 was < 1 nM.

On to `COC(=O)N[C@H](C(=O)N1CCC[C@H]1c1ncc(-c2ccc3oc4cc(-c5cnc([C@@H]6CCCN6C(=O)[C@@H](NC(=O)OC)C(C)C)[nH]5)c(Cl)cc4c(=O)c3c2)[nH]1)C(C)C` [Compound 49], for which the EC50 was < 1 nM.

For `COC(=O)N[C@H](C(=O)N1CCC[C@H]1c1ncc(-c2ccc3c(c2)CCc2cc(-c4cnc([C@@H]5CCCN5C(=O)[C@@H](NC(=O)OC)C(C)C)[nH]4)ccc2O3)[nH]1)C(C)C` [Example 7], the EC50 was < 1 nM.

As for `COC(=O)N[C@@H](C(=O)N1CCC[C@H]1c1ncc(-c2ccc3oc4cc(-c5cnc([C@@H]6CCCN6C(=O)[C@H](NC(=O)OC)c6ccccc6)[nH]5)c(Cl)cc4c(=O)c3c2)[nH]1)c1ccccc1` [Compound 58], the EC50 is < 1 nM.

For the compound `COC(=O)N[C@H](C(=O)N1CCC[C@H]1c1ncc(-c2ccc3c(=O)c4cc(-c5cnc([C@@H]6CCCN6C(=O)[C@H](NC(=O)OC6CCOCC6)c6ccccc6)[nH]5)ccc4oc3c2)[nH]1)C(C)C` [Example 19], the EC50 is < 1 nM.

Turning to `COC(=O)N[C@H](C(=O)N1CCC[C@H]1c1ncc(-c2ccc3c(c2)Oc2ccc(-c4cnc([C@@H]5CCCN5C(=O)[C@@H](NC(=O)OC)C5CCOCC5)[nH]4)cc2O3)[nH]1)C1CCOCC1` [Compound 35], the EC50 is < 1 nM.

On to `COC(=O)N[C@@H](C(=O)N1CSC[C@H]1c1ncc(-c2ccc3c(c2)Oc2ccc(-c4cnc([C@@H]5CSCN5C(=O)[C@H](NC(=O)OC)c5ccccc5)[nH]4)cc2O3)[nH]1)c1ccccc1` [Compound 37], for which the EC50 was < 1 nM.

Turning to `COC(=O)N[C@H](C(=O)N1CCC[C@H]1c1ncc(-c2cc3c(cc2F)Cc2cc(-c4cnc([C@@H]5CCCN5C(=O)[C@@H](NC(=O)OC)[C@@H](C)OC)[nH]4)ccc2O3)[nH]1)C(C)C` [Example 29], the EC50 was < 1 nM.

Regarding `CC(C)(C)OC(=O)N1CCC[C@H]1c1ncc(-c2ccc3c(=O)c4cc(-c5cnc([C@@H]6CCCN6C(=O)OC(C)(C)C)[nH]5)ccc4oc3c2)[nH]1` [Example 9], the EC50 was 10 to 999 nM.
